Reference: paper PMC11480295, “Hypecotumines A-D, new isoquinoline alkaloids with potential PCSK9 inhibition activity from Hypecoum erectum L” (Natural Products and Bioprospecting, 2024)

Target: PCSK9 (Homo sapiens, UniProt Q8NBP7)
Experiment: SPR (Biacore T200, PCSK9 immobilized on CM5 chip)
Type: binding

PCSK9, sequence (Q8NBP7 31-152): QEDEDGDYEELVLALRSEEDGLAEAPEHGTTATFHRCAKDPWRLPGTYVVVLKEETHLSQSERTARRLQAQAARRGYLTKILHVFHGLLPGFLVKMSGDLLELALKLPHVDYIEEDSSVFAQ
PCSK9, sequence (Q8NBP7 153-692): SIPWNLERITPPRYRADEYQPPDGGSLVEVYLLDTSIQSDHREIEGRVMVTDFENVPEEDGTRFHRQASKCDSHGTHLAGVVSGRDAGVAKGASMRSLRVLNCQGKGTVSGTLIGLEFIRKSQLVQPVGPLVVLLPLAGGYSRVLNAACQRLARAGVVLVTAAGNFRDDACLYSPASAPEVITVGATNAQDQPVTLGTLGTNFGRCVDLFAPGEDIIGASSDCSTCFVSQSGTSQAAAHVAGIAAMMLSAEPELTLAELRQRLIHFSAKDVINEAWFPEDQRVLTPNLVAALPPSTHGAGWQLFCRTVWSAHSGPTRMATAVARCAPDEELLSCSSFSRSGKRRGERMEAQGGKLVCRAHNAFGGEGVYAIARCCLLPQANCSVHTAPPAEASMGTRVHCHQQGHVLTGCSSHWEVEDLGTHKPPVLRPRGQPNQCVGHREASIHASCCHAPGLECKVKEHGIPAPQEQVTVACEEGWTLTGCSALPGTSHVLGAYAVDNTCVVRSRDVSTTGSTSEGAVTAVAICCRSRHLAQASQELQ

| Structure (SMILES) | Kd [µM] |
| --- | --- |
| C=C(C1=[N+](C)CCc2cc(OC)c(OC)cc21)c1ccc(OC)c(O)c1C(=O)[O-] [compound 2, Hypecotumine B] | 248 |
| C=C(C1=[N+](C)CCc2cc(OC)c(OC)cc21)c1ccc2c(c1C(=O)[O-])OCO2 [compound 3, Hypecotumine C] | 95.1 |
| C=C(C1=[N+](C)CCc2cc3c(cc21)OCO3)c1ccc2c(c1C(=O)[O-])OCO2 [compound 4, Hypecotumine D] | 59.9 |
| C=C(C1=[N+](C)CCc2cc3c(cc21)OCO3)c1ccc(OC)c(O)c1C(=O)[O-] [compound 1, Hypecotumine A] | 306 |
